Laboratory results as given in PubChem BioAssay (NCI).
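1) Cells in 96-well plates. 2) Compound, 48 h, 5 concentrations. 3) Linear interpolation between surrounding doses. 4) Unreached endpoint = highest concentration. Abbreviation: GI50, concentration required for 50% inhibition of growth. TGI: concentration producing complete growth inhibition.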

Key:
Assay in all cases: DTP human tumour cell line panel, 48 h
[1] = test system: A498 renal
[2] = test system: PC-3 prostate
[3] = test system: SR leukemia
[4] = test system: SW-620 colon
[5] = test system: BT-549 breast
[6] = test system: OVCAR-3 ovarian
[7] = test system: A549 NSCLC
[8] = test system: SN12C renal
[9] = test system: SNB-75 CNS
[10] = test system: MOLT-4 leukemia
[11] = test system: HCT-116 colon
[12] = test system: HL-60(TB) leukemia
[13] = test system: MDA-MB-435
[14] = test system: SF-268 CNS
[15] = test system: OVCAR-5 ovarian
[16] = test system: COLO 205 colon
[17] = test system: IGROV1 ovarian
[18] = test system: OVCAR-4 ovarian
[19] = test system: 786-0 renal
[20] = test system: NCI/ADR-RES ovarian
[21] = test system: K-562 leukemia
[22] = test system: HOP-62 NSCLC
[23] = test system: TK-10 renal
[24] = test system: SF-295 CNS
[25] = test system: HT29 colon
[26] = test system: KM12 colon
[27] = test system: SNB-19 CNS
[28] = test system: HOP-92 NSCLC
[29] = test system: DU-145 prostate
[30] = test system: ACHN renal
[31] = test system: NCI-H226 lung
[32] = test system: RXF 393 renal
[33] = test system: MCF7 breast
[34] = test system: HCT-15 colon
[35] = test system: UACC-257 melanoma
[36] = test system: HCC-2998 colon
[37] = test system: CCRF-CEM leukemia
[38] = test system: SK-MEL-2 melanoma
[39] = test system: RPMI-8226 leukemia
[40] = test system: UACC-62 melanoma
[41] = test system: T-47D breast
[42] = test system: SF-539 CNS
[43] = test system: MALME-3M melanoma
[44] = test system: LOX IMVI melanoma
[45] = test system: SK-OV-3 ovarian
[46] = test system: OVCAR-8 ovarian
[47] = test system: NCI-H522 lung
[48] = test system: EKVX NSCLC
[49] = test system: SK-MEL-28 melanoma
[50] = test system: NCI-H460 lung
[51] = test system: M14 melanoma
[52] = test system: MDA-MB-231 breast
[53] = test system: CAKI-1 renal
[54] = test system: HS 578T breast
[55] = test system: UO-31 renal
[56] = test system: SK-MEL-5 melanoma
[57] = test system: U251 CNS

In the case of CC[C@H](CO)Nc1ccc2ncc(C#Cc3cncc(C(=O)Nc4ccc(CN5CCN(C)CC5)c(C(F)(F)F)c4)c3)n2n1, the GI50 [1] was 266 nM, the TGI [1] was 721 nM and the GI50 [2] was 670 nM. It also gave a TGI [2] of 2800 nM, a GI50 [3] of 196 nM and a TGI [3] of 888 nM. It also gave a GI50 [4] of 186 nM, a TGI [4] of 803 nM and a GI50 [5] of 580 nM. It also gave a TGI [5] of 1670 nM, a GI50 [6] of 576 nM and a TGI [6] of 1630 nM. For the same compound, the GI50 [7] was 356 nM, the TGI [7] was 1450 nM and the GI50 [8] was 160 nM. For the same compound, the TGI [8] was 1030 nM, the GI50 [9] was 48.4 nM and the TGI [9] was 314 nM. The GI50 [10] was 239 nM, the TGI [10] was 1940 nM and the GI50 [11] was 170 nM. The TGI [11] was 662 nM, the GI50 [12] was 218 nM and the TGI [12] was 648 nM. It also gave a GI50 [13] of 451 nM, a TGI [13] of 1090 nM and a GI50 [14] of 246 nM. It also gave a TGI [14] of 1220 nM, a GI50 [15] of 553 nM and a TGI [15] of 2070 nM. For the same compound, the GI50 [16] was 126 nM, the TGI [16] was 319 nM and the GI50 [17] was 152 nM. For the same compound, the TGI [17] was 835 nM, the GI50 [18] was 507 nM and the TGI [18] was 2540 nM. The GI50 [19] was 362 nM, the TGI [19] was 1080 nM and the GI50 [20] was 5850 nM. For the same compound, the TGI [20] was 13400 nM, the GI50 [21] was 15.8 nM and the TGI [21] was 636 nM. The GI50 [22] was 288 nM, the TGI [22] was 1090 nM and the GI50 [23] was 1000 nM. For the same compound, the TGI [23] was 2450 nM, the GI50 [24] was 555 nM and the TGI [24] was 1600 nM. For the same compound, the GI50 [25] was 221 nM, the TGI [25] was 933 nM and the GI50 [26] was 16.5 nM. For the same compound, the TGI [26] was 1180 nM, the GI50 [27] was 880 nM and the TGI [27] was 3280 nM. The GI50 [28] was 70 nM, the TGI [28] was 307 nM and the GI50 [29] was 579 nM. The TGI [29] was 1430 nM, the GI50 [30] was 442 nM and the TGI [30] was 1130 nM. The GI50 [31] was 205 nM, the TGI [31] was 1170 nM and the GI50 [32] was 273 nM. The TGI [32] was 910 nM, the GI50 [33] was 163 nM and the TGI [33] was 807 nM. The GI50 [34] was 813 nM, the TGI [34] was 2070 nM and the GI50 [35] was 760 nM. For the same compound, the TGI [35] was 1530 nM, the GI50 [36] was 703 nM and the TGI [36] was 1690 nM. It also gave a GI50 [37] of 188 nM, a TGI [37] of 1370 nM and a GI50 [38] of 470 nM. It also gave a TGI [38] of 1210 nM, a GI50 [39] of 577 nM and a TGI [39] of 1800 nM. It also gave a GI50 [40] of 767 nM, a TGI [40] of 1570 nM and a GI50 [41] of 900 nM. It also gave a TGI [41] of 2920 nM, a GI50 [42] of 45.4 nM and a TGI [42] of 266 nM. For the same compound, the GI50 [43] was 660 nM, the TGI [43] was 1430 nM and the GI50 [44] was 206 nM. The TGI [44] was 817 nM, the GI50 [45] was 1190 nM and the TGI [45] was 2780 nM. The GI50 [46] was 589 nM, the TGI [46] was 1320 nM and the GI50 [47] was 238 nM. The TGI [47] was 997 nM, the GI50 [48] was 391 nM and the TGI [48] was 1620 nM. It also gave a GI50 [49] of 681 nM, a TGI [49] of 1490 nM and a GI50 [50] of 423 nM. The TGI [50] was 1140 nM, the GI50 [51] was 322 nM and the TGI [51] was 1010 nM. It also gave a GI50 [52] of 142 nM, a TGI [52] of 903 nM and a GI50 [53] of 349 nM. The TGI [53] was 1110 nM, the GI50 [54] was 200 nM and the TGI [54] was 1070 nM. The GI50 [55] was 940 nM, the TGI [55] was 2140 nM and the GI50 [56] was 766 nM. For the same compound, the TGI [56] was 1460 nM, the GI50 [57] was 580 nM and the TGI [57] was 1310 nM.
